Results reported in paper PMC3376404 (Bioorganic & medicinal chemistry letters, 2012).
Values joined by “and” are separate entries in the source; they are usually repeats but may differ in a detail not shown here. Identical values can stand only once. Like-named read-outs stand apart in the source and are kept apart here.

Assays:
Decomposition = assay type: physicochemical; settings: for kobs (apparent rate constant for decomposition): no thiol, compound 70 μM, MOPS 250 mM, pH 7, MeCN 25% v/v, 24 °C
[1] = Reaction with the biological thiol glutathione; assay type: physicochemical; settings: for kobs (pseudo-first-order rate constant, + thiol): compound 70 μM, 24 °C; for kobs (pseudo-first-order rate constant, + thiol) / second-order rate constant for reaction with GSH: GSH 700 μM, MOPS 300 mM, pH 7, MeCN 25% v/v; for second-order rate constant for reaction with GSH: estimated from kobs
[2] = 100 μM 1 in HEPES, 250 mM, pH 7, 24 °C, no organic co-solvent; cited from earlier work
[3] = HEPES buffer, 50 mM, pH 7, 24 °C, no organic co-solvent; cited from earlier work

Row | Structure (SMILES) | kobs (apparent rate constant for decomposition) (Decomposition) | times more stable than 5 against decomposition in aqueous buffer (Decomposition; relative to 5) | times more stable than 6 against decomposition in aqueous buffer (Decomposition; relative to 6) [times] | kobs (pseudo-first-order rate constant, + thiol) [1] | second-order rate constant for reaction with GSH [1] [M⁻¹ s⁻¹] | times less reactive toward GSH than compound 5 ([1]; relative to 5) [times] | rate constant (decomposition) [2] [min⁻¹] | t1/2 (decomposition) [2] [h] | second-order rate constant for reaction with GSH [3] [M⁻¹ s⁻¹] | kobs (decomposition) (Decomposition; 300 mM MOPS, pH 7.0) | kobs (decomposition) (Decomposition; 500 mM MOPS) | kobs (decomposition) (Decomposition; pH 6.5, 300 mM MOPS) [min⁻¹] | kobs (decomposition) (Decomposition; pH 7.5, 300 mM MOPS) [min⁻¹] | stability relative to the cis isomer in aqueous buffered solution (Decomposition; trans isomer 6 versus cis isomer 5)
1 | C/C1=C\[C@@H](O)C(=O)/C=C/C=C\c2csc(n2)[C@@H](C)NC(=O)C[C@@]2(CC1)[S+]([O-])SC(=O)[C@]2(C)O (some centres unmarked) [Compound 1, Leinamycin, reference compound] | 0.408 ± 0.001 × 10^−3 min^-1 | approximately 30 times | ~15 | 6.67 ± 0.01 × 10^−2 min^-1 | 1.58 | 3.6 | 0.00072 | 16.1 | 10.4 |  |  |  |  | 
2 | CC1(C)[S+]([O-])SC(=O)[C@@]1(C)O (some centres unmarked) [Compound 5, 4-hydroxy-4,5,5-trimethyl-1,2-dithiolan-3-one-1-oxide] | 13.2 ± 0.01 × 10^−3 min^-1 |  |  | 24.3 ± 0.1 × 10^−2 min^-1 | 5.73 |  |  |  |  |  |  |  |  | 
3 | CC1(C)[S+]([O-])SC(=O)[C@]1(C)O (some centres unmarked) [Compound 6, 4-hydroxy-4,5,5-trimethyl-1,2-dithiolan-3-one-1-oxide] | 6.2 ± 0.6 × 10^−3 min^-1 |  |  | 18.3 ± 0.2 × 10^−2 min^-1 | 4.35 |  |  |  |  | 1.5 ± 0.2 × 10^−2 min^-1 and 1.5 × 10^−2 min^-1 | 1.9 ± 0.2 × 10^−2 min^-1 | 0.0087 | 0.047 | approximately two times more stable
